The series in a line: Intratracheal bolus instillation of alpha-tocopherol solution in F6H8. The following applies: pigs. It is filed as in vivo.

Excerpt: In the clinical experiment on pigs some of that solution was intratracheally instilled bolus-wise.

As to `Cc1c(C)c2c(c(C)c1O)CC[C@@](C)(CCC[C@H](C)CCC[C@H](C)CCCC(C)C)O2` [alpha-tocopherol], the “location of the drug after exhaling the SFA” value is given as “remained in the alveolar region” and the “transfer of the drug into the bloodstream” value was “no transfer of the drug into the bloodstream was detected”.

For the origin of these results see patent publication US8986738B2, “Inhalative and instillative use of semifluorinated alkanes as an active substance carrier in the intrapulmonary area” (NOVALIQ GmbH, priority 2008, dated 2015).
